The subject of data set [1] is serum testosterone. To be noted: given orally to patients, 200 to 1200 mg daily; cited from earlier work.
In data set [2] the target is T1, LHRH receptors (rat pituitary membranes) (Rattus norvegicus, UniProt P30969).
T1 construct: Pituitary membranes containing LHRH receptors are prepared in batches from quick-frozen rat pituitaries; tissue Hilltop Labs; host or cells: rat pituitary membranes
T1 sequence (P30969 1-327): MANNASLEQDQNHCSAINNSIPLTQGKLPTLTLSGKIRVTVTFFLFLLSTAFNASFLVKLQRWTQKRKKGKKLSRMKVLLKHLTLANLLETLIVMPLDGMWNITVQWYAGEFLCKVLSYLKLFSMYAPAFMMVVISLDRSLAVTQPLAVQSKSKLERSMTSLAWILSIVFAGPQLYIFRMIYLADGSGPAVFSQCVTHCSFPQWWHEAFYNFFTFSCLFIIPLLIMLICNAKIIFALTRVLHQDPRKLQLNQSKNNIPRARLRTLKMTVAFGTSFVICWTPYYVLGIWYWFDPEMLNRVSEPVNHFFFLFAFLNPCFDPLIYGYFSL
Kind of data set: LHRH radioligand receptor binding assay. Conditions: radioiodinated [D-Leu6-des Gly10]-LHRH ethyl amide 50 pM, 2 hours at 4° C., read-out: LHRH RECEPTOR BINDING AFFINITY KI. The method, then: Receptor Binding. A radioligand receptor binding assay is performed in a similar way to that described in the literature (J. Marion et al., Mol. Pharmacol. 19 399 (1981)). [D-Leu^6 -des Gly^10 ]-LHRH ethyl amide was radioiodinated by the chloramine-T method and used as the radioligand. Pituitary membranes containing LHRH receptors are prepared in batches from quick-frozen rat pituitaries obtained from Hilltop Labs. The radioligand (50 pM), receptors, and compounds to be tested are coincubated for 2 hours at 4° C. Bound ligand is separated from free ligand via centrifugation and aspiration. Compounds are tested at six half-log concentration increments, and the equilibrium dissociation constant (KI) is calculated from the concentration which displaces 50% of specifically bound radioligand.

The conditions of data set [3]: in vivo; cited from earlier work.

Consider `CC(=O)N1CCN(c2ccc(OCC3COC(Cn4ccnc4)(c4ccc(Cl)cc4Cl)O3)cc2)CC1` (stereo not drawn) [Ketoconazole], for which, in data set [1], the “suppression of serum testosterone” value is recorded as “dose dependent suppression of serum testosterone”. Further, the Ki in data set [2] came to 2000 nM.

On to `CCNC(=O)[C@@H]1CCCN1C(=O)[C@H](CCCNC(=N)N)NC(=O)[C@H](CC(C)C)NC(=O)[C@@H](CC(C)C)NC(=O)[C@H](Cc1ccc(O)cc1)NC(=O)[C@H](CO)NC(=O)[C@H](Cc1c[nH]c2ccccc12)NC(=O)[C@H](Cc1c[nH]cn1)NC(=O)[C@@H]1CCC(=O)N1` [leuprolide], for which the “bioavailable from the duodenum” value in data set [3] is “less than 1%”.

The record behind these values is patent US4992421A, “Luteinizing hormone releasing hormone antagonist” (priority 1988, dated 1991).
